We go through 1 compound from patent US20230398092A1, “APPLICATION OF SESQUITERPENE LACTONE COMPOUND IN PREPARATION OF DRUGS FOR ALLEVIATING RADIOTHERAPY-INDUCED INJURIES” (ACCENDATECH CO., LTD., priority 2020, published 2023).

Structures are written as SMILES. Read-outs that look alike come from different tables or passages of the source.

The test system of data set [1] is H226 human squamous lung carcinoma cell strain. Kind of data set: Selective radiotherapy protection effect (CCK-8), lung cancer cells. It is filed as cell-based. Conditions: ACT001 10 μM, 0-6 Gy, radiation 1 h after dosing, 48 h, FIG. 5. On the procedure: (§1) The culture medium for H226 and BEAS2B cells was DMEM, and the cells were cultured in a cell incubator at 37° C. with 5% CO2.
(§2) Recover of H226 and BEAS2B cells: a cryopreservation tube was taken from liquid nitrogen, placed in water bath at 37° C. to thaw the cryopreservation solution, and centrifuged at 1000 rpm for 5 min.
(§3) The supernatant was discarded, and the cells were resuspended in a complete culture medium and cultured under the condition of 37° C., 5% CO2.
(§4) When 70-80% of the bottom of the culture dish was covered by the cells, the culture medium was discarded. The cells were washed with 2-3 mL of PBS buffer and digested with 1 mL of 0.25% pancreatin (just enough to cover the bottom of the flask). Immediately after the cell became round after being cultured in the incubator for a period of time, a complete culture medium was added to stop the digestion, and the cell suspensions after the digestion were combined and centrifuged at 1000 rpm for 5 min. The supernatant was discarded, and the cells were resuspended in a complete culture medium, gently pipetted, and counted. […]
(§5) Dosing was performed 24 h after the cells were seeded. […] 10 μL of CCK-8 solution (taking care not to create air bubbles in the wells, which would affect the OD readings) was added to each well, and the plate was incubated in the incubator for 1-4 h. The OD value at 450 nm was determined with a microplate reader.

Data set [2] concerns BALB/c mice. Kind of data set: Effect of ACT001 on survival of mice subjected to radiotherapy. It is filed as in vivo. From the text:
(§6) Adult BALB/c mice, 18-19 g, 8 weeks, female, SPF (Beijing) Biotechnology Co., Ltd., animal certificate number: SCXK (Beijing) 2016-0002. The test animals were bred in the common environment of the experimental animal center of the Institute of Radiation Medicine, Chinese Academy of Medical Sciences, with 5 animals in each cage. The padding was autoclaved special padding for mice, and the mice were fed with special sterilized feed, and were free to drink purified water. In the animal laboratory, the temperature was kept at about 25° C., the relative humidity was kept at 40%-70%, and the illumination was provided for 12 h daily.
In a preliminary experiment of radiation dose exploration, mice were subjected to radiation at 8 Gy, 10 Gy, 12 Gy, and 14 Gy, respectively. All animals died 18 days after the radiation. However, the animals in the 8 Gy group survived longer than the other groups, so the radiation dose of 8 Gy was selected for the formal experiment.
3.1 Experimental Procedures • (1) The lethal dose of a single radiation of mice was determined through a preliminary experiment; (2) the mice were randomly grouped by the body weight; • (3) ACT001 was pre-administered for 17 consecutive days, and the state of the animals was observed and the body weight was measured daily; • (4) the mice in groups (3) and (4) were subjected to radiation at a lethal dose after 17 days of the administration, and on the day of radiation, ACT001 was administered 1 h before the radiation; • (5) ACT001 was continuously administered for five weeks after the radiation, and the survival state of the animals was observed and the body weight was measured daily. The survival rate and survival time of mice in each group were calculated.
3.2 Grouping Regimen • (1) Blank control group • (2) ACT001-200 mg/kg group • (3) Radiotherapy-8 Gy group • (4) ACT001-200 mg/kg+radiotherapy-8 Gy group
A total of 4 groups were set in the experiment, with 10 animals in each group.
3.3 Administration Method • ACT001 (dissolved in normal saline) was administered intragastrically once daily, with an interruption once a week; • an equal volume of normal saline was administered intragastrically to the blank control group.
Data were expressed as x±s; statistical analysis among groups was performed using the t-test program in EXCEL software, and the logrank chi-square test method was used to evaluate whether there was statistical significance in each group of dead animals.

The subject of data set [3] is BEAS2B human normal lung epithelial cell strain. Put plainly: Selective radiotherapy protection effect on normal cells (CCK-8), normal lung epithelial cells. Type of data set: cell-based. Conditions: ACT001 10 μM, 0-6 Gy, radiation 1 h after dosing, 48 h, FIG. 5. On the procedure: as §1, §2, §3, §4, §5
Data set [4] has as its system SYSY human neuroblastoma cell strain. Put plainly: Alleviation of radiation-induced neuronal cell death (CCK-8). It is filed as cell-based. Particulars: ACT001 1.25-10 μM, 0-10 Gy, radiation 1 h after dosing, 48 h, FIG. 6. On the procedure:
The culture medium for SYSY cells was DMEM, and the cells were cultured in a cell incubator at 37° C. with 5% CO2.
Recover of SYSY cells: a cryopreservation tube was taken from liquid nitrogen, placed in water bath at 37° C. to thaw the cryopreservation solution, and centrifuged at 1000 rpm for 5 min. The supernatant was discarded, and the cells were resuspended in a complete culture medium and cultured under the condition of 37° C., 5% CO2.
as §4, §5

The test system of data set [5] is U118-MG human brain astroblastoma cell strain. Put plainly: Anti-proliferation activity of ACT001 at different radiation doses (CCK-8). Particulars: ACT001 20 μM; for inhibition at 20 µM: Homo sapiens, U-118-MG, U118-MG cells, read-out: Inhibition rate (%) at different radiation doses. It is filed as cell-based. On the procedure: The culture medium for U118-MG was DMEM, and the cells were cultured in a cell incubator at 37° C. with 5% CO2.
Recover of U118-MG cells: a cryopreservation tube was taken from liquid nitrogen, placed in water bath at 37° C. to thaw the cryopreservation solution, and centrifuged at 1000 rpm for 5 min. The supernatant was discarded, and the cells were resuspended in a complete culture medium and cultured under the condition of 37° C., 5% CO2.
When 70-80% of the bottom of the culture flask was covered by the cells, the culture medium was discarded by pipetting. The cells were washed with 2-3 mL of PBS buffer and digested with 1-2 mL of 0.25% pancreatin (just enough to cover the bottom of the flask). Immediately after the cell became round after being cultured in the incubator for a period of time, a complete culture medium was added to stop the digestion, and the cell suspensions after the digestion were combined and centrifuged at 1000 rpm for 5 min. The supernatant was discarded, and the cells were resuspended in a complete culture medium, gently pipetted, and counted. The cell density was adjusted to 2500 cells/well, and the cells were seeded into a 96-well plate at 90 μL/well.
Dosing was performed one day after the cells were seeded. Each plate was divided into a blank group, a negative control group and 10 compound groups, with 4-6 duplicate wells set for each group. 10 μL of the compound was added to each well. 3 h later, each well received a corresponding radiation dose. The cells were cultured at 37° C. for 24 h. After that, the culture medium was discarded, a corresponding fresh culture medium was added, and the plate was incubated for 48 h. At the end of incubation, 10 μL of CCK-8 solution (taking care not to create air bubbles in the wells, which would affect the OD readings) was added to each well, and the plate was incubated in the incubator for 1-4 h. The OD value at 450 nm was determined with a microplate reader.
The data were processed with an EXCEL software to solve inhibition rates at different concentrations, and IC50 values were obtained by fitting with SPSS. The mean and standard deviation of the IC50 values obtained three times were solved by SPSS.
Inhibition rate %={1−(OD value of compound well−OD value of blank well)/(OD value of control well−OD value of blank well)}×100%

For data set [6], the system named is BALB/c mice. Kind of data set: Effect of ACT001 on radiation-induced neuronal apoptosis of mice (Tunel staining of whole brain). It is filed as in vivo. Particulars: ACT001 200 mg/kg intragastrically + brain radiation 2 Gy × 4 or single 4 Gy, day 14, Tunel staining, FIG. 7.
Source text: as §6, with “2.3 Experimental Animal and Feeding Conditions • Adult” for “Adult”, “2019-0010.” for “2016-0002.”, “barrier” for “common”, “daily. 3. Experimental procedures and compound treatment” for “daily.”
3.1 Administration Method • ACT001 (dissolved in sterile normal saline) was administered intragastrically once daily; an equal volume of sterile normal saline was administered to the model control group; • The compound for each group was prepared freshly prior to use.
3.2 Experimental Grouping • (1) Model control group • (2) Radiotherapy control group (4 Gy) • (3) ACT001-200 mg/kg group • (4) ACT001-200 mg/kg+4 Gy group • (5) Radiotherapy low-dose control group (2 Gy) • (6) ACT001-200 mg/kg+2 Gy group • 10 animals in each group, 60 animals in total.
The mice were randomly grouped, with 10 mice in each group. […]

Regarding `CC1=C2CC[C@@](C)(O)[C@@H]2[C@H]2OC(=O)[C@@H](CN(C)C)[C@@H]2CC1.O=C(O)/C=C/C(=O)O` [ACT001, (3R,3aS,9R,9aS,9bS)-3-((dimethylamino)methyl)-9-hydroxy-6,9-dimethyl-3,3a,4,5,7,8,9,9a-octahydroazuleno[4,5]furan-2(9bH)-one fumarate], the “Protection effect on H226 tumor cells against radiation” value in data set [1] is “no protection effect on H226 tumor cells”. For the same compound, the “Day on which animal death occurred” value with BALB/c mice [2] (ACT001 200 mg/kg + radiotherapy 8 Gy group) amounted to 15 days. For the same compound, the “Survival time compared with the radiotherapy control-8 Gy group” value with BALB/c mice [2] (ACT001 200 mg/kg + radiotherapy 8 Gy, P<0.01) is on record as “significantly prolonged”. The “State and body weight of animals during pre-administration” value in the data set on BALB/c mice [2] (ACT001 200 mg/kg intragastrically, 17 consecutive days before radiotherapy) is “in good state with stable body weight”. Besides, the “Survival rate (%)” value came to 70% with BALB/c mice [2] (ACT001 200 mg/kg p.o. × 49 + systemic radiotherapy 8 Gy × 1, BALB/c mice) and 100% in the data set on BALB/c mice [2] (ACT001 200 mg/kg p.o. × 49, no radiotherapy, BALB/c mice). Besides, the “Body weight (g) End” value amounted to 18.5 ± 2.9 g in the data set on BALB/c mice [2] (ACT001 200 mg/kg p.o. × 49 + systemic radiotherapy 8 Gy × 1, x ± s) and 19.1 ± 3.0 g in the data set on BALB/c mice [2] (ACT001 200 mg/kg p.o. × 49, no radiotherapy, x ± s). In data set [3], the “Effect on radiotherapy-induced injuries of BEAS2B cells” value is listed as “significantly reduce radiotherapy-induced injuries of BEAS2B cells”. Further, the “Effect on injuries of SYSY cells caused by radiation” value in data set [4] is recorded as “significantly reduce the injuries of SYSY cells caused by radiation”. In data set [5] (FIG. 1), the “Effect on the inhibition by radiation of the proliferation of U118-MG cells” value is given as “significantly enhance the inhibition effect of the radiation group”. Moreover, the inhibition (in general, the drop in the measured response relative to a control, in per cent) at 20 µM in data set [5] (0 Gy) stood at 19.2%; in data set [5] (6 Gy) it was 22.8%; in data set [5] (10 Gy) it was 33.8%; in data set [5] (20 Gy), 36.1%; in data set [5] (50 Gy) it was 75.6%. The “Apoptosis of neurons in the cerebral cortex compared with radiation-only groups” value with BALB/c mice [6] is “significantly reduce the apoptosis of neurons”.
